Reference: patent US11858941B2, “Heterocyclic and heteroaryl compounds for treating Huntington's disease” (PTC THERAPEUTICS, INC., priority 2018, dated 2024)

Tested on: Endogenous Huntingtin Protein
Experiment: Endogenous Huntingtin Protein Assay (Meso Scale Discovery ELISA-based electrochemiluminescence)
Format: cell-based
Details: MSD plates coated with MW1 (expanded polyglutamine) or MAB2166 capture antibody; lysates
Method: Compounds of Formula (I) were tested using the Meso Scale Discovery (MSD) Assay provided in International Application No. PCT/US2016/066042, filed on Dec. 11, 2016 and claiming priority to United States Provisional Application U.S. 62/265,652 filed on Dec. 10, 2015, the entire contents of which are incorporated herein by reference.
The Endogenous Huntingtin Protein assay used in Example 1 was developed using the ELISA-based MSD electrochemiluminescence assay platform.
Endogenous Huntingtin Protein Assay
Meso Scale Discovery (MSD) 96-well or 384-well plates were coated overnight at 4° C. with MW1 (expanded polyglutamine) or MAB2166 monoclonal antibody (for capture) at a concentration of 1 μg/mL in PBS (30 μL per well). Plates were then washed three times with 300 μL wash buffer (0.05% Tween-20 in PBS) and blocked (100 μL blocking buffer; 5% BSA in PBS) for 4-5 hours at room temperature with rotational shaking and then washed three times with wash buffer.
Samples (25 μL) were transferred to the antibody-coated MSD plate and incubated overnight at 4° C. After removal of the lysates, the plate was washed three times with wash buffer, and 25 μL of #5656S (Cell signaling; rabbit monoclonal) secondary antibody (diluted to 0.25 μg/mL in 0.05% Tween-20 in blocking buffer) was added to each well and incubated with shaking for 1 Hour at room temperature. Following incubation with the secondary antibody, the wells were rinsed with wash buffer after which 25 μL of goat anti-rabbit SULFO TAG secondary detection antibody (required aspect of the MSD system) (diluted to 0.25 μg/mL in 0.05% Tween-20 in blocking buffer) was added to each well and incubated with shaking for 1 hour at room temperature. After rinsing three times with wash buffer, 150 μL of read buffer T with surfactant (MSD) were added to each empty well, and the plate was imaged on a SI 6000 imager (MSD) according to manufacturers' instructions provided for 96- or 384-well plates.

| IC50 | SMILES |
| --- | --- |
| ≤ 100 nM | CC1(C)CC(n2nnc3cc(-c4ccc(-c5ccncc5)cc4O)nnc32)CC(C)(C)N1 [Cpd 66, 5-(pyridin-4-yl)-2-[3-(2,2,6,6-tetramethylpiperidin-4-yl)-3H-[1,2,3]triazolo[4,5-c]pyridazin-6-yl]phenol] |
| ≤ 100 nM | [2H]C([2H])([2H])n1cc(-c2ccc(-c3cc4nnn(C5CC(C)(C)NC(C)(C)C5)c4nn3)c(O)c2)cn1 [Cpd 69, 5-[1-(^2H3)methyl-1H-pyrazol-4-yl]-2-[3-(2,2,6,6-tetramethylpiperidin-4-yl)-3H-[1,2,3]triazolo[4,5-c]pyridazin-6-yl]phenol] |
| 100 to 500 nM | CC1(C)CC(n2nnc3cc(-c4ccc(-c5cnn(C(F)F)c5)cc4O)nnc32)CC(C)(C)N1 [Cpd 71, 5-[1-(difluoromethyl)-1H-pyrazol-4-yl]-2-[3-(2,2,6,6-tetramethylpiperidin-4-yl)-3H-[1,2,3]triazolo[4,5-c]pyridazin-6-yl]phenol] |
| ≤ 100 nM | Cc1cc(-c2ccc(-c3cc4nnn(C5CC(C)(C)NC(C)(C)C5)c4nn3)c(O)c2)ccn1 [Cpd 73, 5-(2-methylpyridin-4-yl)-2-[3-(2,2,6,6-tetramethylpiperidin-4-yl)-3H-[1,2,3]triazolo[4,5-c]pyridazin-6-yl]phenol] |
| 100 to 500 nM | CC1(C)CC(n2nnc3cc(-c4ccc(-c5ccnnc5)cc4O)nnc32)CC(C)(C)N1 [Cpd 76, 5-(pyridazin-4-yl)-2-[3-(2,2,6,6-tetramethylpiperidin-4-yl)-3H-[1,2,3]triazolo[4,5-c]pyridazin-6-yl]phenol] |
| ≤ 100 nM | COc1cc(-c2ccc(-c3cc4nnn(C5CC(C)(C)NC(C)(C)C5)c4nn3)c(O)c2)ccn1 [Cpd 77, 5-(2-methoxypyridin-4-yl)-2-[3-(2,2,6,6-tetramethylpiperidin-4-yl)-3H-[1,2,3]triazolo[4,5-c]pyridazin-6-yl]phenol] |
| 1000 to 3000 nM | CC1(C)CC(n2nnc3cc(-c4ccc(-c5cncnc5)cc4O)nnc32)CC(C)(C)N1 [Cpd 78, 5-(pyrimidin-5-yl)-2-[3-(2,2,6,6-tetramethylpiperidin-4-yl)-3H-[1,2,3]triazolo[4,5-c]pyridazin-6-yl]phenol] |
| 100 to 500 nM | CC1(C)CC(n2nnc3cc(-c4ccc(-c5cc[nH]c5)cc4O)nnc32)CC(C)(C)N1 [Cpd 80, 5-(1H-pyrrol-3-yl)-2-[3-(2,2,6,6-tetramethylpiperidin-4-yl)-3H-[1,2,3]triazolo[4,5-c]pyridazin-6-yl]phenol] |
| 1000 to 3000 nM | CN(C)c1ccc(-c2ccc(-c3cc4nnn(C5CC(C)(C)NC(C)(C)C5)c4nn3)c(O)c2)cn1 [Cpd 84, 5-[6-(dimethylamino)pyridin-3-yl]-2-[3-(2,2,6,6-tetramethylpiperidin-4-yl)-3H-[1,2,3]triazolo[4,5-c]pyridazin-6-yl]phenol] |
| 100 to 500 nM | CC1(C)CC(n2nnc3cc(-c4ccc(-c5ccn6cncc6c5)cc4O)nnc32)CC(C)(C)N1 [Cpd 88, 5-(imidazo[1,5-a]pyridin-7-yl)-2-[3-(2,2,6,6-tetramethylpiperidin-4-yl)-3H-[1,2,3]triazolo[4,5-c]pyridazin-6-yl]phenol] |
| 100 to 500 nM | CC1(C)CC(n2nnc3cc(-c4ccc(-c5ccsc5)cc4O)nnc32)CC(C)(C)N1 [Cpd 89, 2-[3-(2,2,6,6-tetramethylpiperidin-4-yl)-3H-[1,2,3]triazolo[4,5-c]pyridazin-6-yl]-5-(thiophen-3-yl)phenol] |

The remaining lines, values behind:

| SMILES | IC50 |
| --- | --- |
| CC1(C)CC(n2nnc3cc(-c4ccc(-c5ccc(O)cn5)cc4O)nnc32)CC(C)(C)N1 [Cpd 67, 6-{3-hydroxy-4-[3-(2,2,6,6-tetramethylpiperidin-4-yl)-3H-[1,2,3]triazolo[4,5-c]pyridazin-6-yl]phenyl}pyridin-3-ol] | ≤ 100 nM |
| CC1(C)CC(n2nnc3cc(-c4ccc(-c5ncc(O)cn5)cc4O)nnc32)CC(C)(C)N1 [Cpd 68, 2-{3-hydroxy-4-[3-(2,2,6,6-tetramethylpiperidin-4-yl)-3H-[1,2,3]triazolo[4,5-c]pyridazin-6-yl]phenyl}pyrimidin-5-ol] | ≤ 100 nM |
| CC1(C)CC(n2nnc3cc(-c4ccc(-n5ccnc5)cc4O)nnc32)CC(C)(C)N1 [Cpd 70, 5-(1H-imidazol-1-yl)-2-[3-(2,2,6,6-tetramethylpiperidin-4-yl)-3H-[1,2,3]triazolo[4,5-c]pyridazin-6-yl]phenol] | ≤ 100 nM |
| CC1(C)CC(n2nnc3cc(-c4ccc(-n5ccnn5)cc4O)nnc32)CC(C)(C)N1 [Cpd 72, 2-[3-(2,2,6,6-tetramethylpiperidin-4-yl)-3H-[1,2,3]triazolo[4,5-c]pyridazin-6-yl]-5-(1H-1,2,3-triazol-1-yl)phenol] | 100 to 500 nM |
| CC1(C)CC(n2nnc3cc(-c4ccc(-c5ccnc(C(F)(F)F)c5)cc4O)nnc32)CC(C)(C)N1 [Cpd 74, 2-[3-(2,2,6,6,-tetramethylpiperidin-4-yl)-3H-[1,2,3]triazolo[4,5-c]pyridazin-6-yl]-5-[2-(trifluoromethyl)pyridin-4-yl]phenol] | 100 to 500 nM |
| CC1(C)CC(n2nnc3cc(-c4ccc(-c5ccncn5)cc4O)nnc32)CC(C)(C)N1 [Cpd 75, 5-(pyrimidin-4-yl)-2-[3-(2,2,6,6-tetramethylpiperidin-4-yl)-3H-[1,2,3]triazolo[4,5-c]pyridazin-6-yl]phenol] | 100 to 500 nM |
| CC1(C)CC(n2nnc3cc(-c4ccc(-c5ccc(O)nn5)cc4O)nnc32)CC(C)(C)N1 [Cpd 79, 6-{3-hydroxy-4-[3-(2,2,6,6-tetramethylpiperidin-4-yl)-3H-[1,2,3]triazolo[4,5-c]pyridazin-6-yl]phenyl}pyridazin-3-ol] | 500 to 1000 nM |
| CC1(C)CC(n2nnc3cc(-c4cc5cccnc5cc4O)nnc32)CC(C)(C)N1 [Cpd 81, 6-[3-(2,2,6,6-tetramethylpiperidin-4-yl)-3H-[1,2,3]triazolo[4,5-c]pyridazin-6-yl]quinolin-7-ol] | 1000 to 3000 nM |
| CC1(C)CC(n2nnc3cc(-c4cc5c(cc4O)/C(=N/O)CC5)nnc32)CC(C)(C)N1 [Cpd 82, (3E)-3-(hydroxyimino)-6-[3-(2,2,6,6-tetramethylpiperidin-4-yl)-3H-[1,2,3]triazolo[4,5-c]pyridazin-6-yl]-2,3-dihydro-1H-inden-5-ol] | 100 to 500 nM |
| CC1(C)CC(n2nnc3cc(-c4cc(Cl)c(-c5cn[nH]c5)cc4O)nnc32)CC(C)(C)N1 [Cpd 83, 4-chloro-5-(1H-pyrazol-4-yl)-2-[3-(2,2,6,6-tetramethylpiperidin-4-yl)-3H-[1,2,3]triazolo[4,5-c]pyridazin-6-yl]phenol] | ≤ 100 nM |
| CC1(C)CC(n2nnc3cc(-c4ccc(-c5cnc6cnccn56)cc4O)nnc32)CC(C)(C)N1 [Cpd 85, 5-(imidazo[1,2-a]pyrazin-3-yl)-2-[3-(2,2,6,6-tetramethylpiperidin-4-yl)-3H-[1,2,3]triazolo[4,5-c]pyridazin-6-yl]phenol] | 1000 to 3000 nM |
| CC1(C)CC(n2nnc3cc(-c4ccc(-c5ccn(C6CC6)c(=O)c5)cc4O)nnc32)CC(C)(C)N1 [Cpd 86, 1-cyclopropyl-4-{3-hydroxy-4-[3-(2,2,6,6-tetramethylpiperidin-4-yl)-3H-[1,2,3]triazolo[4,5-c]pyridazin-6-yl]phenyl}pyridin-2(1H)-one] | 1000 to 3000 nM |
| CC1(C)CC(n2nnc3cc(-c4cc(F)c(-c5ccncc5)cc4O)nnc32)CC(C)(C)N1 [Cpd 87, 4-fluoro-5-(pyridin-4-yl)-2-[3-(2,2,6,6-tetramethylpiperidin-4-yl)-3H-[1,2,3]triazolo[4,5-c]pyridazin-6-yl]phenol] | 100 to 500 nM |
